From patent publication US20250339401A1, “METHODS AND MATERIALS FOR TREATMENT OF NEISSERIA GONORRHOEAE INFECTION” (Purdue Research Foundation, priority 2021, published 2025) come the findings set out here.

What all share (assay type): cell-based
Test [1] concerns Neisseria gonorrhoeae 178. The test is described as follows: MIC broth microdilution, N. gonorrhoeae 178. On the procedure: (§1) The minimum inhibitory concentrations (MICs) of the tested compounds and control drugs; Azithromycin, Cefixime and Tetracycline (antibiotics) were determined using the broth microdilution method as described in previous reports with minor modifications against clinically-relevant Neisseria gonorrhea strains. Strains were grown on Brucella broth supplemented with yeast extract, neopeptone, hematin, pyridoxal and NAD at 37° C. for 24 hours in presence of 5% CO2. […] Compounds and control drugs were added in the first row of the 96-well plates and serially diluted with media containing bacteria. Plates were then, incubated aerobically at 37° C. in the presence of 5% CO2 for 24 hours.
In general terms: In broth dilution the organism is exposed to a series of concentrations in liquid medium.

Test [2] has as its system Neisseria gonorrhoeae 188. Nature of the test: MIC broth microdilution, N. gonorrhoeae 188. The method, then: as §1
Test [3] relates to Neisseria gonorrhoeae 202. Nature of the test: MIC broth microdilution, N. gonorrhoeae 202. The method, then:
as §1

Test [4] has as its system Neisseria gonorrhoeae 175. Nature of the test: MIC broth microdilution, N. gonorrhoeae 175. The method, then:
as §1

Test [5] concerns Neisseria gonorrhoeae 194. The test is described as follows: MIC broth microdilution, N. gonorrhoeae 194. The method, then:
as §1

The test system of test [6] is Neisseria gonorrhoeae 214. Nature of the test: MIC broth microdilution, N. gonorrhoeae 214. The method, then: as §1
Test [7] concerns Neisseria gonorrhoeae 166. Nature of the test: MIC broth microdilution, N. gonorrhoeae 166. On the procedure:
as §1

Test [8] deals with Neisseria gonorrhoeae isolate 191. Nature of the test: MIC broth microdilution, initial screening against N. gonorrhoeae isolate 191. Conditions: 24 hours, 37° C., 5% CO2. The method, then: as §1
In test [9] the test system is Neisseria gonorrhoeae 165. Nature of the test: MIC broth microdilution, N. gonorrhoeae 165. On the procedure:
as §1

Test [10] concerns Neisseria gonorrhoeae 172. Nature of the test: MIC broth microdilution, N. gonorrhoeae 172. The method, then: as §1
For test [11], the system named is Neisseria gonorrhoeae 171. Nature of the test: MIC broth microdilution, N. gonorrhoeae 171. On the procedure:
as §1

The test system of test [12] is Neisseria gonorrhoeae 167. The test is described as follows: MIC broth microdilution, N. gonorrhoeae 167. The method, then:
as §1

The test system of test [13] is Neisseria gonorrhoeae 170. The test is described as follows: MIC broth microdilution, N. gonorrhoeae 170. On the procedure:
as §1

For test [14], the system named is Neisseria gonorrhoeae 169. Nature of the test: MIC broth microdilution, N. gonorrhoeae 169. The method, then: as §1

Molecules are shown by their SMILES. ≈ marks a conversion by molar mass, not a printed value.

As usually defined, the MIC is the lowest concentration found to suppress growth. A higher MIC goes with a less susceptible organism. Turning to `CC[C@H]1OC(=O)[C@H](C)[C@@H](O[C@H]2C[C@@](C)(OC)[C@@H](O)[C@H](C)O2)[C@H](C)[C@@H](O[C@@H]2O[C@H](C)C[C@H](N(C)C)[C@H]2O)[C@](C)(O)C[C@@H](C)CN(C)[C@H](C)[C@@H](O)[C@]1(C)O` [Azithromycin], the MIC is 1 µg/mL (≈ 1.34 µM) in test [1]; 2 µg/mL (≈ 2.67 µM) in [2]; 32 µg/mL (≈ 42.7 µM) in test [3]; 16 µg/mL (≈ 21.4 µM) in [4]; 1 µg/mL (≈ 1.34 µM) in test [5]; 0.5 µg/mL (≈ 0.668 µM) in test [6]. Besides, the MIC in [7] was 2 µg/mL (≈ 2.67 µM); in test [9] it was 1 µg/mL (≈ 1.34 µM); in [10] it was above 128 µg/mL; in [11], 0.25 µg/mL (≈ 0.334 µM); in test [12], 16 µg/mL (≈ 21.4 µM); in test [13], 1 µg/mL (≈ 1.34 µM). This compound also had a minimum inhibitory concentration (MIC) in [14] of 1 µg/mL (≈ 1.34 µM). Besides, the “MIC (Minimum inhibitory concentration)” value in test [8] was above 128.
As for `C=CC1=C(C(=O)O)N2C(=O)[C@@H](NC(=O)/C(=N\OCC(=O)O)c3csc(N)n3)[C@H]2SC1` [Cefixime], the MIC in [1] is 0.25 µg/mL (≈ 0.551 µM); in test [2] it was 0.25 µg/mL (≈ 0.551 µM); in test [3], 0.03 µg/mL (≈ 0.0662 µM); in test [4] it was 0.03 µg/mL (≈ 0.0662 µM); in [5] it was 1 µg/mL (≈ 2.21 µM); in [6], 0.25 µg/mL (≈ 0.551 µM). The minimum inhibitory concentration (MIC) was 0.5 µg/mL (≈ 1.1 µM) in test [7]; 0.25 µg/mL (≈ 0.551 µM) in [9]; 0.06 µg/mL (≈ 0.132 µM) in test [10]; 0.25 µg/mL (≈ 0.551 µM) in test [11]; 0.06 µg/mL (≈ 0.132 µM) in test [12]; 0.25 µg/mL (≈ 0.551 µM) in test [13]. In [14], this compound yielded an MIC of 0.25 µg/mL (≈ 0.551 µM). Further, the “MIC (Minimum inhibitory concentration)” value in [8] is 0.06.
With `CN(C)[C@@H]1C(O)=C(C(N)=O)C(=O)[C@@]2(O)C(O)=C3C(=O)c4c(O)cccc4[C@@](C)(O)[C@H]3C[C@@H]12` [Tetracycline], the MIC in test [1] was 16 µg/mL (≈ 36 µM); in test [2] it was 2 µg/mL (≈ 4.5 µM); in test [3], 1 µg/mL (≈ 2.25 µM); in test [4], 1 µg/mL (≈ 2.25 µM); in [5], 1 µg/mL (≈ 2.25 µM); in test [6] it was 4 µg/mL (≈ 9 µM). Further, the minimum inhibitory concentration (MIC) in test [7] came to 2 µg/mL (≈ 4.5 µM); in test [9], 8 µg/mL (≈ 18 µM); in [10], 1 µg/mL (≈ 2.25 µM); in test [11], 2 µg/mL (≈ 4.5 µM); in [12] it was 1 µg/mL (≈ 2.25 µM); in test [13], 4 µg/mL (≈ 9 µM). This compound also gave an MIC in test [14] of 4 µg/mL (≈ 9 µM). Moreover, in test [8], the “MIC (Minimum inhibitory concentration)” value was 1.
